Assay results from ChEMBL document CHEMBL1201862, “PubChem BioAssay data set” (2004).
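All cell lines were grown in 96-well plates and treated with compound for 48 hours. The concentration for 50% growth inhibition is given as GI50.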 Activity calls are given as the source filed them. Cut-off read from the data, not from the text of the source: active = GI50 up to about 1.1 µM and inactive = higher.

Experiments:
Assay in all cases: NCI anticancer screen, dose series, 48 h
SF-268 = tested on: SF-268
Malme-3M = tested on: Malme-3M
IGROV-1 = tested on: IGROV-1
NCI-H460 = tested on: NCI-H460
MDA-N = tested on: MDA-N
MDA-MB-435 = tested on: MDA-MB-435
NCI-H23 = tested on: NCI-H23
786-0 = tested on: 786-0
K562 = tested on: K562
KM12 = tested on: KM12
SR = tested on: SR
UACC-62 = tested on: UACC-62
BT-549 = tested on: BT-549
SW-620 = tested on: SW-620
LOX IMVI = tested on: LOX IMVI
ACHN = tested on: ACHN
HCT-15 = tested on: HCT-15
NCI-H522 = tested on: NCI-H522
A498 = tested on: A498

SMILES: CN1CC=C(C#CC(C)(C)O)CC1
- GI50 (SF-268): > 37.5 µM (inactive)
- GI50 (Malme-3M): 30.8 µM (inactive)
- GI50 (IGROV-1): > 37.5 µM (inactive)
- GI50 (NCI-H460): > 37.5 µM (inactive)
- GI50 (MDA-N): > 37.5 µM (inactive)
- GI50 (MDA-MB-435): > 37.5 µM (inactive)
- GI50 (NCI-H23): > 37.5 µM (inactive)
- GI50 (786-0): > 37.5 µM (inactive)
- GI50 (K562): > 37.5 µM (inactive)
- GI50 (KM12): > 37.5 µM (inactive)
- GI50 (SR): > 37.5 µM (inactive)
- GI50 (UACC-62): > 37.5 µM (inactive)
- GI50 (BT-549): > 37.5 µM (inactive)
- GI50 (SW-620): > 37.5 µM (inactive)
- GI50 (LOX IMVI): > 37.5 µM (inactive)
- GI50 (ACHN): > 37.5 µM (inactive)
- GI50 (HCT-15): > 37.5 µM

SMILES: CCOC(=O)c1cc(-c2ccc(Cl)cc2)c([N+](=O)[O-])n1C
- GI50 (SF-268): > 10 µM (inactive)
- GI50 (Malme-3M): > 10 µM (inactive)
- GI50 (IGROV-1): > 10 µM (inactive)
- GI50 (NCI-H460): > 10 µM (inactive)
- GI50 (MDA-N): > 10 µM (inactive)
- GI50 (MDA-MB-435): > 10 µM (inactive)
- GI50 (NCI-H23): > 10 µM (inactive)
- GI50 (786-0): > 10 µM (inactive)
- GI50 (K562): > 10 µM (inactive)
- GI50 (KM12): > 10 µM (inactive)
- GI50 (SR): 5.08 µM (inactive)
- GI50 (BT-549): > 10 µM (inactive)
- GI50 (NCI-H522): > 10 µM (inactive)
- GI50 (ACHN): > 10 µM (inactive)
- GI50 (HCT-15): > 10 µM

SMILES: C=CCCCC1CCCNC1=O (centres undefined)
- GI50 (SF-268): > 100 µM (inactive)
- GI50 (IGROV-1): > 100 µM (inactive)
- GI50 (NCI-H460): 42.6 µM (inactive)
- GI50 (MDA-N): 58.5 µM (inactive)
- GI50 (MDA-MB-435): > 100 µM (inactive)
- GI50 (NCI-H23): > 100 µM (inactive)
- GI50 (786-0): > 100 µM (inactive)
- GI50 (K562): > 100 µM (inactive)
- GI50 (KM12): > 100 µM (inactive)
- GI50 (UACC-62): > 100 µM (inactive)
- GI50 (A498): > 100 µM (inactive)
- GI50 (BT-549): > 100 µM (inactive)
- GI50 (SW-620): > 100 µM (inactive)
- GI50 (NCI-H522): > 100 µM (inactive)
- GI50 (ACHN): > 100 µM (inactive)
- GI50 (HCT-15): 19 µM

SMILES: CCN(CC)CCC(=O)c1ccc(Oc2ccccc2)cc1
- GI50 (SF-268): 20.8 µM (inactive)
- GI50 (Malme-3M): 15.1 µM (inactive)
- GI50 (IGROV-1): 17.1 µM (inactive)
- GI50 (MDA-N): 16.5 µM (inactive)
- GI50 (MDA-MB-435): 20.7 µM (inactive)
- GI50 (NCI-H23): 25.1 µM (inactive)
- GI50 (786-0): 15.6 µM (inactive)
- GI50 (K562): 35.3 µM (inactive)
- GI50 (KM12): 13.1 µM (inactive)
- GI50 (SR): 39.4 µM (inactive)
- GI50 (UACC-62): 15.9 µM (inactive)
- GI50 (BT-549): 18.7 µM (inactive)
- GI50 (SW-620): 17.1 µM (inactive)
- GI50 (LOX IMVI): 16.8 µM (inactive)
- GI50 (ACHN): 15.8 µM (inactive)
- GI50 (HCT-15): 17.4 µM
